We go through eight compounds from patent publication US20240174723A1, “STAPLED ANTIMICROBIAL PEPTIDES (STAMPS) AND USES THEREOF” (Lytica Therapeutics, Inc., priority 2021, published 2024).

One data set deals with K. pneumoniae. It is filed as cell-based, Klebsiella pneumoniae. On the procedure:
(§1) Antimicrobial Activity Assay: The following microbroth dilution protocol was adapted from CLSI to determine the minimum inhibitory concentration (MIC) of StAMPs. Briefly, Mueller-Hinton broth (MHB) or cation-adjusted Mueller-Hinton broth (MHB II) was prepared and autoclaved. Then, a colony of bacterial cells was picked and grown overnight in broth at 37° C. and then diluted and allowed to grow again for 3-4 hours. Serial dilutions of peptide stocks in water (10 μl) were prepared using clear round-bottom polypropylene 96-well plates. Then 90 μl of bacteria in broth was added to give a final inoculum of 5×10^5 CFU/ml. The plates were then covered with porous tape to reduce evaporation and incubated for 20-24 hours at 37° C. The MIC was the minimum peptide concentration at which no visible bacterial growth was observed.
(§2) Renal toxicity was measured after 90 minutes of incubation, while liver toxicity was measured after 48 hours of incubation with StAMPs. N/A=not tested. The following apply to all peptides (i.e., StAMPs) listed in Tables A-C: Crosslinks (X^1—X^2 and X^3—X^4): (alk); N-terminus: —NH2; C-terminus: amidated with —NH2; counterion: Cl^−. The following apply to all peptides (i.e., StAMPs) listed in Table D: Crosslinks (X^1—X^2 and X^3—X^4): (alk); N-terminus: —NH2; C-terminus: as shown in table; counterion: Cl^−.

The test system of the next data set is E. coli. Type of data set: cell-based, Escherichia coli. On the procedure: as §1, §2
The next data set concerns A. baumannii. Type of data set: cell-based, Acinetobacter baumannii. On the procedure: as §1, §2
The nature of the next data set: in vitro. Type of data set: cell-based. The following applies: human, Inhibitory Concentration at 50% Cytotoxicity (IC50) Human Liver Cells (HepG2). On the procedure:
Cell culture: RPTEC were maintained in MEM media supplemented with growth factors. HEPG2 cell line was maintained in Eagle's Minimum Essential Medium (EMEM) supplemented with fetal bovine serum to a final concentration of 10%.
48 hours cytotoxicity assay: Cells were plated in a 96-well format, and after 4 hour incubation to allow attachment, serial dilutions of StAMPs from a 5 mg/mL water stock, or vehicle, were then added to the cells in a final volume of 100 μl. After incubating at 37° C. for 48 hours, 100 μl of CellTiter-Glo® reagent was added to the cells, and the plates were incubated 10 minutes at room temperature. Luminescence was then measured on a microplate reader.
as §2

The next data set deals with P. aeruginosa. Type of data set: cell-based, Pseudomonas aeruginosa. On the procedure:
as §1, §2
StAMP Micelle Formulation: DSPE-MPEG(2000) was suspended in buffered saline at 50-100 mg/mL overnight. StAMP stock solutions at 5-20 mg/mL in buffered saline were prepared and equal volumes of micelle and StAMP stock solution were mixed at the desired StAMP:Lipid ratio. Suspensions were allowed to sit for 5-10 minutes at room temperature before being used in in vitro and in vivo assays. […]

The subject of a further data set is S. aureus. Type of data set: cell-based, Staphylococcus aureus. On the procedure:
as §1, §2

The structures appear in SMILES notation. ≈ marks a conversion by molar mass, not a printed value. Positions of bridges follow the written chain, without caps; N, C: chain ends. Non-standard residues stand in square brackets, D forms with d. Residues, ends and D or L forms follow the SMILES beside them. S5 = C=CCCC[C@](C)(N)C(=O)O; Dab = NCC[C@H](N)C(=O)O; Dap = NC[C@H](N)C(=O)O

`CC(C)[C@@H]1NC(=O)[C@@](C)(NC(=O)[C@H](C)NC(=O)[C@H](CCCCN)NC(=O)CNC(=O)[C@H](Cc2ccccc2)NC(=O)[C@H](CCCCN)NC(=O)[C@H](CCCCN)NC(=O)[C@H](CCCCN)NC(=O)[C@H](CCCCN)NC(=O)[C@H](CCCCN)NC(=O)[C@]2(C)CCCC=CCCC[C@](C)(NC(=O)CN)C(=O)NCC(=O)N[C@@H](CCCCN)C(=O)N[C@@H](Cc3ccccc3)C(=O)N2)CCCC=CCCC[C@@](C)(C(=O)N[C@@H](C)C(=O)N[C@@H](CCN)C(=O)N[C@@H](CCCCN)C(N)=O)NC(=O)[C@H](CCC(=O)O)NC(=O)CNC1=O` [compound 44] (H-G[S5]GKF[S5]KKKKKFGKA[S5]VGE[S5]A[Dab]K-NH2; staple 2-6, 16-20): the “Minimum Inhibitory Concentration (MIC) K. pneumoniae” value with K. pneumoniae worked out at 6 µg/mL. The “Minimum Inhibitory Concentration (MIC) E. coli” value in the data set with E. coli was determined as 2 µg/mL. Besides, in the data set with A. baumannii, the “Minimum Inhibitory Concentration (MIC) A. baumannii” value came to 2 µg/mL. The IC50 (as a rule, the midpoint of a concentration-inhibition curve) at 48 hours in “in vitro” is 87 µg/mL (≈ 34.3 µM). For the same compound, the “Minimum Inhibitory Concentration (MIC) P. aeruginosa” value in the data set on P. aeruginosa is 4 µg/mL. Further, in the data set with S. aureus, the “Minimum Inhibitory Concentration (MIC) S. aureus” value stood at 32 µg/mL.
Consider `CC(C)[C@@H]1NC(=O)[C@@](C)(NC(=O)[C@H](C)NC(=O)[C@H](CCCCN)NC(=O)CNC(=O)[C@H](Cc2ccccc2)NC(=O)[C@H](CCCCN)NC(=O)[C@H](CCCCN)NC(=O)[C@H](CCCCN)NC(=O)[C@H](CCCCN)NC(=O)[C@H](CCCCN)NC(=O)[C@]2(C)CCCC=CCCC[C@](C)(NC(=O)CN)C(=O)NCC(=O)N[C@@H](CCCCN)C(=O)N[C@@H](Cc3ccccc3)C(=O)N2)CCCC=CCCC[C@@](C)(C(=O)N[C@@H](C)C(=O)N[C@@H](CCCCN)C(=O)N[C@@H](CCCCN)C(=O)NCC(=O)NCC(=O)N[C@@H](CCC(=O)O)C(N)=O)NC(=O)[C@H](CCC(=O)O)NC(=O)[C@H](CO)NC1=O` [compound 93] (H-G[S5]GKF[S5]KKKKKFGKA[S5]VSE[S5]AKKGGE-NH2; staple 2-6, 16-20), for which the “Minimum Inhibitory Concentration (MIC) K. pneumoniae” value in the data set on K. pneumoniae was found to be 32 µg/mL. Moreover, in the data set with E. coli, the “Minimum Inhibitory Concentration (MIC) E. coli” value is 2 µg/mL. The “Minimum Inhibitory Concentration (MIC) A. baumannii” value in the data set on A. baumannii was 1 µg/mL. In the data set “in vitro”, the 50% inhibitory concentration (IC50) at 48 hours was above 200 µg/mL. The “Minimum Inhibitory Concentration (MIC) P. aeruginosa” value with P. aeruginosa is 1 µg/mL. Besides, in the data set with S. aureus, the “Minimum Inhibitory Concentration (MIC) S. aureus” value is above 64 µg/mL.
Consider `CC(C)[C@@H]1NC(=O)[C@@](C)(NC(=O)[C@H](C)NC(=O)[C@H](CN)NC(=O)CNC(=O)[C@H](Cc2ccccc2)NC(=O)[C@H](CCCCN)NC(=O)[C@H](CCCCN)NC(=O)[C@H](CCCCN)NC(=O)[C@H](CCCCN)NC(=O)[C@H](CCCCN)NC(=O)[C@]2(C)CCCC=CCCC[C@](C)(NC(=O)CN)C(=O)NCC(=O)N[C@@H](CCCCN)C(=O)N[C@@H](Cc3ccccc3)C(=O)N2)CCCC=CCCC[C@@](C)(C(=O)N[C@@H](C)C(=O)N[C@@H](CCCCN)C(=O)N[C@@H](CCCCN)C(N)=O)NC(=O)[C@H](CCC(=O)O)NC(=O)CNC1=O` [compound 50] (H-G[S5]GKF[S5]KKKKKFG[Dap]A[S5]VGE[S5]AKK-NH2; staple 2-6, 16-20), for which the “Minimum Inhibitory Concentration (MIC) K. pneumoniae” value in the data set on K. pneumoniae is 8 µg/mL. In addition, the “Minimum Inhibitory Concentration (MIC) E. coli” value with E. coli was 4 µg/mL. The “Minimum Inhibitory Concentration (MIC) A. baumannii” value with A. baumannii is 2 µg/mL. Moreover, the “Minimum Inhibitory Concentration (MIC) P. aeruginosa” value with P. aeruginosa amounted to 8 µg/mL. Further, the “Minimum Inhibitory Concentration (MIC) S. aureus” value with S. aureus was above 64 µg/mL.
In the case of `CC(C)[C@@H]1NC(=O)[C@@](C)(NC(=O)[C@H](C)NC(=O)[C@H](CCCCN)NC(=O)CNC(=O)[C@H](Cc2ccccc2)NC(=O)[C@H](CCCCN)NC(=O)[C@H](CCCCN)NC(=O)[C@H](CCCCN)NC(=O)[C@H](CCCCN)NC(=O)[C@H](CCCCN)NC(=O)[C@]2(C)CCCC=CCCC[C@](C)(NC(=O)CN)C(=O)NCC(=O)N[C@@H](CCCCN)C(=O)N[C@@H](Cc3ccccc3)C(=O)N2)CCCC=CCCC[C@@](C)(C(=O)N[C@@H](C)C(=O)N[C@@H](CN)C(=O)N[C@@H](CCCCN)C(N)=O)NC(=O)[C@H](CCC(=O)O)NC(=O)CNC1=O` [compound 51] (H-G[S5]GKF[S5]KKKKKFGKA[S5]VGE[S5]A[Dap]K-NH2; staple 2-6, 16-20), in the data set with K. pneumoniae, the “Minimum Inhibitory Concentration (MIC) K. pneumoniae” value was found to be 4 µg/mL. Also, in the data set on E. coli, the “Minimum Inhibitory Concentration (MIC) E. coli” value stood at 2 µg/mL. Besides, the “Minimum Inhibitory Concentration (MIC) A. baumannii” value in the data set on A. baumannii was found to be 2 µg/mL. For the same compound, the “Minimum Inhibitory Concentration (MIC) P. aeruginosa” value with P. aeruginosa stood at 4 µg/mL. For the same compound, the “Minimum Inhibitory Concentration (MIC) S. aureus” value with S. aureus is above 64 µg/mL.
In the case of `CC(C)[C@@H]1NC(=O)[C@@](C)(NC(=O)[C@H](C)NC(=O)[C@H](CCCCN)NC(=O)CNC(=O)[C@H](Cc2ccccc2)NC(=O)[C@H](CCCCN)NC(=O)[C@H](CN)NC(=O)[C@H](CCCCN)NC(=O)[C@H](CCCCN)NC(=O)[C@H](CCCCN)NC(=O)[C@]2(C)CCCC=CCCC[C@](C)(NC(=O)CN)C(=O)NCC(=O)N[C@@H](CCCCN)C(=O)N[C@@H](Cc3ccccc3)C(=O)N2)CCCC=CCCC[C@@](C)(C(=O)N[C@@H](C)C(=O)N[C@@H](CCCCN)C(=O)N[C@@H](CCCCN)C(N)=O)NC(=O)[C@H](CCC(=O)O)NC(=O)CNC1=O` [compound 48] (H-G[S5]GKF[S5]KKK[Dap]KFGKA[S5]VGE[S5]AKK-NH2; staple 2-6, 16-20), the “Minimum Inhibitory Concentration (MIC) K. pneumoniae” value with K. pneumoniae was 16 µg/mL. Besides, in the data set with E. coli, the “Minimum Inhibitory Concentration (MIC) E. coli” value worked out at 4 µg/mL. Besides, in the data set on A. baumannii, the “Minimum Inhibitory Concentration (MIC) A. baumannii” value came out at 2 µg/mL. In the data set with P. aeruginosa, the “Minimum Inhibitory Concentration (MIC) P. aeruginosa” value came to 8 µg/mL. For the same compound, in the data set with S. aureus, the “Minimum Inhibitory Concentration (MIC) S. aureus” value is above 64 µg/mL.
Taken in the same sequence, the figures for `CC(C)[C@@H]1NC(=O)[C@@](C)(NC(=O)[C@H](C)NC(=O)[C@H](CCCCN)NC(=O)CNC(=O)[C@H](Cc2ccccc2)NC(=O)[C@H](CN)NC(=O)[C@H](CCCCN)NC(=O)[C@H](CCCCN)NC(=O)[C@H](CCCCN)NC(=O)[C@H](CCCCN)NC(=O)[C@]2(C)CCCC=CCCC[C@](C)(NC(=O)CN)C(=O)NCC(=O)N[C@@H](CCCCN)C(=O)N[C@@H](Cc3ccccc3)C(=O)N2)CCCC=CCCC[C@@](C)(C(=O)N[C@@H](C)C(=O)N[C@@H](CCCCN)C(=O)N[C@@H](CCCCN)C(N)=O)NC(=O)[C@H](CCC(=O)O)NC(=O)CNC1=O` [compound 49] (H-G[S5]GKF[S5]KKKK[Dap]FGKA[S5]VGE[S5]AKK-NH2; staple 2-6, 16-20) were 8 µg/mL, 4 µg/mL, 2 µg/mL, 8 µg/mL and above 64 µg/mL.
Taken in the same sequence, the figures for `CC(C)[C@@H]1NC(=O)[C@@](C)(NC(=O)[C@H](C)NC(=O)[C@H](CCCCN)NC(=O)CNC(=O)[C@H](Cc2ccccc2)NC(=O)[C@H](CCCCN)NC(=O)[C@H](CCCCN)NC(=O)[C@H](CCCCN)NC(=O)[C@H](CCCCN)NC(=O)[C@H](CCCCN)NC(=O)[C@]2(C)CCCC=CCCC[C@](C)(NC(=O)CN)C(=O)NCC(=O)N[C@@H](CCCCN)C(=O)N[C@@H](Cc3ccccc3)C(=O)N2)CCCC=CCCC[C@@](C)(C(=O)N[C@@H](C)C(=O)N[C@@H](CCCCN)C(=O)N[C@@H](CN)C(N)=O)NC(=O)[C@H](CCC(=O)O)NC(=O)CNC1=O` [compound 52] (H-G[S5]GKF[S5]KKKKKFGKA[S5]VGE[S5]AK[Dap]-NH2; staple 2-6, 16-20) were 8 µg/mL, 2 µg/mL, 2 µg/mL, 4 µg/mL and above 64 µg/mL.
In the same order, the values of `CC(C)[C@@H]1NC(=O)[C@@](C)(NC(=O)[C@H](C)NC(=O)[C@H](CCCCN)NC(=O)CNC(=O)[C@H](Cc2ccccc2)NC(=O)[C@H](CCCCN)NC(=O)[C@H](CCCCN)NC(=O)[C@H](CCCCN)NC(=O)[C@H](CN)NC(=O)[C@H](CCCCN)NC(=O)[C@]2(C)CCCC=CCCC[C@](C)(NC(=O)CN)C(=O)NCC(=O)N[C@@H](CCCCN)C(=O)N[C@@H](Cc3ccccc3)C(=O)N2)CCCC=CCCC[C@@](C)(C(=O)N[C@@H](C)C(=O)N[C@@H](CCCCN)C(=O)N[C@@H](CCCCN)C(N)=O)NC(=O)[C@H](CCC(=O)O)NC(=O)CNC1=O` [compound 47] (H-G[S5]GKF[S5]K[Dap]KKKFGKA[S5]VGE[S5]AKK-NH2; staple 2-6, 16-20) are 6 µg/mL, 2 µg/mL, 2 µg/mL, 4 µg/mL and above 64 µg/mL.
